Molecules are shown by their SMILES. The source made the active and inactive calls. No rule for the calls is given here.

In this experiment the test system is Trypanosoma brucei growth inhibition. Kind of experiment: T. brucei growth inhibition (AID 1159557).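 Also: parasites exposed to compound for 48 h before the resazurin readout.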
Broadly, the IC50 is the concentration at which inhibition is half-maximal. Regarding `O=C(c1ccccc1)N1CCC(C(=O)N2CCC(Oc3ccccc3Cl)CC2)CC1`, the IC50 is 0.5 µM.

For `N#Cc1cc(-c2ccnc(Nc3cccc(CN4CCOCC4)c3)n2)ccc1NCCN`, the IC50 was 0.4 µM. Take `Cc1cc(NC(=O)c2ccc([N+](=O)[O-])s2)ccc1Br`: the IC50 is 0.32 µM. The same measure for `CC(C)(C)C(=O)NCCc1csc(-c2ccc(F)cc2)n1`: 0.63 µM; for `CCc1cccc(CC)c1-n1c(SCC(=O)NC(=O)NCc2ccco2)nnc1-c1cccnc1`: 0.4 µM. The same measure for `O=C(Nc1cccc(Cl)c1)Nc1ccc([N+](=O)[O-])cc1Cl`: 2.5 µM; for `CCN(CC)c1nc(Nc2ccncc2)nc2ccccc12`: 2.5 µM; for `CCS(=O)(=O)Nc1ccc(C2=NN(C(=O)c3cccs3)C(c3ccccc3OC)C2)cc1` (stereo not drawn): 5 µM. Take `CNC(=O)C1Cc2ccccc2N1C(=O)Cc1ccc(OC)cc1` (stereo not drawn): the IC50 was 0.4 µM. With `CNc1cc(Cn2c(C(=O)c3cc(C)cc(Cl)c3)c(C(C)C)c(=O)[nH]c2=O)ccn1`, the IC50 is 25 µM. As for `COc1ccc(NS(=O)(=O)c2cccc(NC(=O)c3cc(F)cc(F)c3)c2)cc1`, the IC50 was 0.63 µM.

As to `O=C(CCCNC(=O)c1ccc(Cl)cc1)Nc1nc(-c2ccccn2)cs1`, the IC50 is 7.9 µM.

`Cn1ccnc1CN1CCc2[nH]cnc2C1c1ccccc1OCc1ccccc1` (stereo not drawn): the IC50 was 0.4 µM. For `CCc1cccc(-n2nc(OCC(=O)NC3CCCC3)c3cccnc32)c1`, the IC50 is > 40 µM (inactive). `Cc1ccc(NC(=O)c2ccnc(N3CCCC3)c2)cc1-c1cc(C(N)=O)ccc1C`: the IC50 is 0.1 µM. For `CN(Cc1cc2ccccc2s1)c1ncc2c(N)nc(N)nc2n1`, the IC50 is 32 µM.

Consider `CNc1cncc(C2CCCN2C(=O)Cc2coc3cc(C)ccc23)n1` (stereo not drawn), for which the IC50 is > 40 µM (inactive). Regarding `O=C(CSc1ccc(F)cc1)N[C@@H](Cc1cnc[nH]1)C(=O)NCCc1ccccc1`, the IC50 is > 40 µM (inactive). Regarding `O=C(Nc1ccc(C(F)(F)F)cc1)NC1(C(=O)NCc2ccco2)CCCCC1`, the IC50 was 0.79 µM. Turning to `CN(C)CCN(C)Cc1ccc(Cl)cc1NS(=O)(=O)c1ccc(Cl)c(Cl)c1`, the IC50 is 7.9 µM.

For `CNS(=O)(=O)c1ccccc1Nc1nc(Nc2cc(C)nn2C)ncc1Cl`, the IC50 was 0.063 µM. For the compound `N#Cc1ccc(Br)cc1[N+](=O)[O-]`, the IC50 was 0.16 µM. As to `O=C(CC1(O)C(=O)N(Cc2ccccc2)c2ccc(Br)cc21)c1cccnc1` (stereo not drawn), the IC50 is 0.63 µM. Consider `COc1cc(C(C)C)c(S(C)(=O)=O)cc1C(=O)N1CCN(c2ccccc2Cl)CC1`, for which the IC50 was 25 µM. In the case of `Cc1ccc(C)c(OC2CCN(C(=O)C(C)n3ccnc3)CC2)c1` (stereo not drawn), the IC50 was > 40 µM (inactive).

Consider `O=C(NC1CCN(C2Cc3ccc(NS(=O)(=O)c4cc(F)cc(F)c4)cc3C2)CC1)C1CC1` (stereo not drawn), for which the IC50 was 1 µM. On to `CCOc1cc(NCCCN2CCN(C)CC2)c2ncccc2c1`, for which the IC50 was 13 µM. On to `CCOc1ccc2nc(NC(=O)c3ccc([N+](=O)[O-])s3)sc2c1`, for which the IC50 was 1.3 µM. As to `OCCCNc1nc(Nc2ccncc2)nc2ccccc12`, the IC50 was 25 µM.

`CN1CCCN(C(=O)c2ccc(N3CCCC3)cc2Cl)CC1`: the IC50 was > 40 µM (inactive).

With `CN(Cc1cccnc1)Cc1ccc(N2CCN(C(=O)C3(c4ccc(Cl)cc4)CC3)CC2)nc1`, the IC50 was 32 µM.

Regarding `NC(=O)c1ccsc1NC(=O)c1ccc([N+](=O)[O-])s1`, the IC50 was 0.2 µM.

`Cc1cc2ncn(-c3ccc([N+](=O)[O-])cc3C#N)c2cc1C`: the concentration for half-maximal inhibition (IC50) is 20 µM. For the compound `Cc1cccnc1CN1CCN(CCCOc2ccc(-c3ccc(C(N)=O)cc3)cc2)CC1`, the IC50 was 10 µM.

As to `CCc1cc(C(=O)Nc2nccn2-c2ccccc2)cs1`, the IC50 was 3.2 µM. Regarding `COc1ccc(OC)c2c(=O)c(Cc3ccccc3)c(C)[nH]c12`, the IC50 was > 40 µM (inactive). Regarding `CCC(=O)Nc1ccc(-c2nc3ccc(Cl)cc3[nH]2)cc1`, the IC50 was 6.3 µM. As to `O=C(COc1ncnc2cc([N+](=O)[O-])ccc12)NC(=O)NC1CCCCC1`, the IC50 was 6.3 µM.
